Entries after “also recorded” stand apart in the source; their conditions may differ.
What was measured:
normal guinea pig = assay: Swallowing reflex in normal guinea pig after local pharyngeal administration of substance P receptor antagonist; format: in vivo
Procedure: (§1) To 6 week-old female Hartley guinea pigs (330 to 390 g) habituated for 1 week after receipt, a physiological saline solution, or a haloperidol solution was injected subcutaneously in a dosage of 1 mg/kg approx. every 12 hours twice per day for 7 days. Thereafter, a guinea pig was fixed at extremities, and 500 μL of distilled water was injected over 5 sec through a device to a part just before the pharynx, and the total frequency of swallowing until 10 sec and 30 sec from the injection was measured based on a muscle movement in a pharyngeal site. Thereafter a physiological saline solution, or a haloperidol solution was injected again (1 mg/kg).
FK888 (10 μM, 50 μL/guinea pig), which is a substance P receptor antagonist, was administered locally with a spray device to a pharyngeal site of a guinea pig, and water drinking reflection frequency was measured in the same way as in Experiment 1.

[1] = test system: guinea pig dysphagia model induced by repeated administrations of haloperidol; assay: Swallowing reflex (water drinking frequency) in dysphagia model induced by repeated administrations of haloperidol; format: in vivo; details: for water drinking frequency (dysphagia improving effect): oral (intragastric)
Hartley guinea pigs = assay: Swallowing reflex (water drinking frequency) after repeated administrations of haloperidol; format: in vivo, guinea pig; details: haloperidol 1 mg/kg s.c. twice per day for 7 days, compared to physiological saline group
Procedure: as §1
The measurements were repeated totally 4 times at intervals of 1 min. […] Based on the result, the guinea pig was used as a dysphagia model induced by repeated administrations of haloperidol in the following experiments for evaluation of drug efficacy.

[2] = test system: blood pressure increase by intravenous administration of angiotensin I in a normal rat; assay: Blood pressure increase induced by intravenous angiotensin I; details: oral, angiotensin I 300 ng/kg i.v. after 1 hour, SD male rats
Procedure: The respective dose of a captopril, or lisinopril aqueous solution was administered orally and the blood pressures were measured after 1 hour. Thereafter, angiotensin I was administered intravenously (300 ng/kg) to induce blood pressure increase and a change in the mean blood pressure was measured.

[3] = test system: guinea pig dysphagia model induced by repeated administrations of haloperidol; assay: Swallowing reflex (water drinking frequency) in dysphagia model induced by repeated administrations of haloperidol; format: in vivo; details: local spray to pharyngeal mucosa, 100 μL of 50 μM aqueous solution, 2 hours after administration

## CN(Cc1ccccc1)C(=O)[C@H](Cc1ccc2ccccc2c1)NC(=O)[C@@H]1C[C@@H](O)CN1C(=O)c1cn(C)c2ccccc12 [FK888]
Normal guinea pig; FK888 10 μM, 50 μL/guinea pig, local spray to pharyngeal site
  swallowing reflex (water drinking reflection frequency): decrease in swallowing reflex
[1]; 100 μL local spray to pharyngeal mucosa
  lower limit not influencing swallowing reflex: 10 nM
[1]; FK888 10 nM, 100 μL, local spray 15 min after lisinopril administration
  increase in water drinking frequency by lisinopril (50 nM, 100 μL): almost completely suppressed

## C[C@H](CS)C(=O)N1CCC[C@H]1C(=O)O [captopril]
Normal guinea pig; captopril aqueous solution sprayed to pharyngeal site 30 min before FK888
  decrease in swallowing reflex by FK888 administration: suppressed
[1]; 100 μL of 50 μM aqueous solution sprayed to pharyngeal mucosa, 30 min after spray
  water drinking frequency: significant increase; also recorded: exhibited an improving effect on dysphagia
[1]; 100 μL of 50 mM aqueous solution sprayed to pharyngeal mucosa, 30 min after spray
  water drinking frequency: significant increase; also recorded: exhibited an improving effect on dysphagia
[1]; same dose as 100 μL of 50 μM aqueous solution, 30 min after administration
  water drinking frequency (dysphagia improving effect): did not exert an influence
[1]; same dose as 100 μL of 50 mM aqueous solution, 30 min after administration
  water drinking frequency (dysphagia improving effect): did not exert an influence

## O=C(CCCN1CCC(O)(c2ccc(Cl)cc2)CC1)c1ccc(F)cc1 [haloperidol]
Hartley guinea pigs
  water drinking frequency: significantly decreased

## NCCCC[C@H](N[C@@H](CCc1ccccc1)C(=O)O)C(=O)N1CCC[C@H]1C(=O)O [lisinopril]
[2]; 100 μL of 5 μM aqueous solution
  vasopressor reaction by administration of angiotensin I (change in mean blood pressure): had no influence
[2]; 100 μL of 5 mM aqueous solution
  vasopressor reaction by administration of angiotensin I (change in mean blood pressure): suppressed a vasopressor reaction
[1]; 100 μL aqueous solution sprayed to pharyngeal mucosa
  dose giving significant increase in water drinking frequency: ≥ 50 nM
[1]; 100 μL of 0.5 nM to 500 μM aqueous solution (pH 7.0) sprayed to pharyngeal mucosa
  water drinking frequency: dose-dependent increase
[1]; 100 μL of 50 nM aqueous solution sprayed to pharyngeal mucosa, 30 min after administration
  water drinking frequency: increase in water drinking frequency
[1]; same dose as the local administration (100 μL of 50 mM), 2 hours after administration
  water drinking frequency (dysphagia improving effect): exerted no influence; also recorded: no dysphagia improving effect was observed
[3]
  water drinking frequency (dysphagia improving effect): exhibited an improving effect on dysphagia
